In patent publication EP2982368A1, “Small molecule compounds displacing focal adhesion core components” (Universität Konstanz, priority 2014, dated 2016):

Legend:
[1] = test system: MDA-MB-231 breast cancer cells; assay: In vitro wound healing assay; format: cell-based, human; settings: 3 µM, 25 h, serum-containing growth medium
Experimental: Image J was used to automatically quantify FAK-containing focal adhesions due to local maxima of fluorescence intensity in the GFP-channel (5 to 70 pixel). The number of cells was automatically counted in the Hoechst channel. To test reproducibility of the system 40 control wells were quantified wherein four positions for each well were imaged. […] GFP-FAK mouse embryonic fibroblasts were seeded on fibronectin and incubated for 1 h with the indicated concentrations of the small compounds, respectively. […] GFP-FAK mouse embryonic fibroblasts were seeded on fibronectin and serum-starved overnight. The indicated concentrations of Mb31 were applied for 30 min. Cells were lysed and analyzed for paxillin and FAK protein level as well as FAK Tyr397 phosphorylation. […] The purified kinase domain of FAK was incubated with increasing amounts of Mb31 for 1 h at 30°C together with poly-Glu-Tyr as a FAK substrate. […] Serum-starved GFP-FAK mouse embryonic fibroblasts were stimulated with normal growth medium and incubated for 5 h with the indicated concentrations of the small molecule compounds, respectively. Cell viability was assessed by MTT assay. […] GFP-FAK MEFs were seeded on fibronectin and serum-starved overnight. Migration was stimulated by replacing the medium with normal growth medium. Migration of single cells was tracked for 8 h in 30 min intervals. Migration was recorded from cells that were cultured without serum (A), with serum (B) or with serum in the presence of 3 µM Mb31 (C). […] (A) GFP-FAK MEFs were seeded and serum-starved as in Figure 10. Cell migration was stimulated with normal growth medium and single cells were tracked for 5 h. (B) Mb31 was added and the same cells were tracked for additional 5 h. (C) Mean velocities of differently treated cells were plotted over time. […] NIH-v-Src fibroblasts were seeded on 2 µg/ml FN in DMEM/0.5%BSA and stimulated with 10 ng/ml EGF or kept unstimulated. […] Mouse embryonic fibroblasts (MEFs) were transfected with talin-mCherry and talin dynamics analyzed in focal adhesions using fluorescence recovery after photobleaching (FRAP). Cells were left untreated (A) or treated with 10 µM of Mb31 (B). In untreated cells, the mCherry intensity recovered, indicating replacement of bleached by non-bleached talin and therefore turnover of talin at focal adhesions. […] (C) Wound closure was microscopically analyzed and evaluated using ImageJ software.
To determine if the migration of transformed cells can be blocked by FLocker1 and related compounds, human breast carcinoma cells (MDA-MB-231) were used in in vitro wound healing assays. […] The ability of the cells to migrate and close the wound space was monitored by microscopy and quantified (Figure 18B and C).

[2] = target: T1, FAK/Paxillin (Mus musculus, UniProt P34152+Q8VI36); assay: FAK/Paxillin displacement by structurally related compounds (FootLocker series, confocal microscopy); format: cell-based; design: key to Activtiy (activity towards FAK/Paxillin displacement): ++ indicates displacing effect at 5 µM; + at 20 µM; - indicates no observed effect
T1 construct: expressed in transfected cells; host or cells: mouse fibroblasts stably expressing GFP-FAK
T1 sequence (P34152 whole entry): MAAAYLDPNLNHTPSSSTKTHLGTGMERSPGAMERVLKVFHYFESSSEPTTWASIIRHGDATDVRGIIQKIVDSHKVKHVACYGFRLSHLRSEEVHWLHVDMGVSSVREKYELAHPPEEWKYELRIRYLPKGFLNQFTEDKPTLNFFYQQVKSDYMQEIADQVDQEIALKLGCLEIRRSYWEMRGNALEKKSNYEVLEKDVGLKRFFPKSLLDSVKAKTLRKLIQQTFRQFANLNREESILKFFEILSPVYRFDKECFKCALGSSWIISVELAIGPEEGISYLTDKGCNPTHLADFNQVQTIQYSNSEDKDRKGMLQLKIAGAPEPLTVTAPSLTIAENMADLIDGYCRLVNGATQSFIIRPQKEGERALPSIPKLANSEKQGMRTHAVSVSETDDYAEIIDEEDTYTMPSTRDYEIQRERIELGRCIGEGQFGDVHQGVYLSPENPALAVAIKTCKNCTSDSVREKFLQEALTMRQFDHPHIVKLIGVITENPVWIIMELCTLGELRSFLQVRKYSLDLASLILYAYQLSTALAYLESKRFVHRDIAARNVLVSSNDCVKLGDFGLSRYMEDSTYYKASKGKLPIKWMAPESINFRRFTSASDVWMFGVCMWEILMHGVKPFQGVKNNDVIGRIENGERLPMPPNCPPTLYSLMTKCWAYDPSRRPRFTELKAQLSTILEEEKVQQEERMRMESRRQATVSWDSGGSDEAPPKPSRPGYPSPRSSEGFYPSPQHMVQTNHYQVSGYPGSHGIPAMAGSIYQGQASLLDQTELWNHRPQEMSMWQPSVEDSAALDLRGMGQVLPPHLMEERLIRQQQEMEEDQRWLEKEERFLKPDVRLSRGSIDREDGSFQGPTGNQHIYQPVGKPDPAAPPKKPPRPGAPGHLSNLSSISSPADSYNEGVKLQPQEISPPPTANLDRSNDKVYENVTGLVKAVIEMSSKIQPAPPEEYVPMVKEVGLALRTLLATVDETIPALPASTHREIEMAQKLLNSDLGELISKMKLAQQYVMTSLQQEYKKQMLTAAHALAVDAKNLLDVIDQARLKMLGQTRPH
T1 sequence (Q8VI36 whole entry): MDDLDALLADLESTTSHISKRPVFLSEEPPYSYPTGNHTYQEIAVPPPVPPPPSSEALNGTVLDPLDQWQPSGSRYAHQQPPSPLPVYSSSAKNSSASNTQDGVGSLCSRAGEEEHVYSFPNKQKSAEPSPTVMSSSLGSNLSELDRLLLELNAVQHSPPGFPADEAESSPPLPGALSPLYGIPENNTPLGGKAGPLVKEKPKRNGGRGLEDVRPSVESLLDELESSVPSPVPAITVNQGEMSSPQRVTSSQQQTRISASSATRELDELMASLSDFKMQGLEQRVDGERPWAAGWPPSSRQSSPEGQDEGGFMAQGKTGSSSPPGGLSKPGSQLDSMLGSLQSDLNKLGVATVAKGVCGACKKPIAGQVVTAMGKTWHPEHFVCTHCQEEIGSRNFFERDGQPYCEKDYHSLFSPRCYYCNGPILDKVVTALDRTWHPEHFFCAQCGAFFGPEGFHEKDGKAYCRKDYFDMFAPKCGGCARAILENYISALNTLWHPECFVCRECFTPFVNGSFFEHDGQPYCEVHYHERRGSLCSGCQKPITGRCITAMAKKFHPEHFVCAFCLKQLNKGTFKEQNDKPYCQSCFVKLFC
Experimental: To determine whether compounds structurally related to Mb31 and Mb36 are likewise suitable to interfere with FAK localization at focal adhesions, mouse fibroblasts stably expressing GFP-FAK were treated for 30 min with 1, 10 or 20 µM of the following compounds: trans-3-hydroxy-β-nitrostyrene (THBN), trans-4-Chloro-β-nitrostyrene (T4CN), trans-β-nitrostyrene (TBN), 4-chlorocinnamic acid (4CA), and trans-3-(4-bromothiophen-2-yl)acrylic acid (T34BA) (Figures 16 and 17). The cells were analyzed by confocal microscopy for GFP-FAK localization. DMSO treatment served as a vehicle control. […] Additional substituents at the aromatic structures, such as halogen atoms or hydroxy groups may contribute to the reactivity of the compound, but are not essential. Based on these findings, the inventors have extended their structure activity-relationship studies and synthesized additional related compounds, which, similar to Mb31, displace FAK and paxillin at concentrations below 10µM (++), displace FAK and paxillin at concentrations above 10 µM (+), or lack FAK and paxillin displacing activity (-). All these substances were then also nicknamed in the FLocker terminology, resulting in FLocker1 - FLocker24 (Table 2). Table 2: Overview of FootLocker nomenclature, their chemical notation/structure and the activity towards FAK/Paxillin displacement

Compound	disruption of protein-protein interactions at focal adhesion site [2]	Activtiy (activity towards FAK/Paxillin displacement) [2]	other results
O=[N+]([O-])/C=C/c1cccc(O)c1 [FootLocker 3, (E)-3-(2-nitrovinyl)phenol]	efficiently disrupt protein-protein interactions at focal adhesion site		migration of cancer cells / wound closure [1]: retarded the migration of the cancer cells; compounds showing the most prominent effect on protein-protein interactions at focal adhesion site [2]: most prominent effect
COc1cccc(/C=C/[N+](=O)[O-])c1 [FootLocker 4, (E)-1-methoxy-3-(2-nitrovinyl)benzene]	efficiently disrupt protein-protein interactions at focal adhesion site		compounds showing the most prominent effect on protein-protein interactions at focal adhesion site [2]: most prominent effect
[N-]=[N+]=NCCOCCOCCOCCNC(=O)CCCCCCOc1cccc(/C=C/[N+](=O)[O-])c1 [FootLocker 7, (E)-N-(2-(2-(2-(2-azidoethoxy)ethoxy)ethoxy)ethyl)-7-(3-(2-nitrovinyl)phenoxy)heptanamide]	efficiently disrupt protein-protein interactions at focal adhesion site		
O=[N+]([O-])/C=C/c1ccccc1O [FootLocker 8, (E)-2-(2-nitrovinyl)phenol]	efficiently disrupt protein-protein interactions at focal adhesion site		
O=[N+]([O-])/C=C/c1ccccc1F [FootLocker 9, (E)-1-fluoro-2-(2-nitrovinyl) benzene]	efficiently disrupt protein-protein interactions at focal adhesion site		migration of cancer cells / wound closure [1]: retarded the migration of the cancer cells; compounds showing the most prominent effect on protein-protein interactions at focal adhesion site [2]: most prominent effect
Cc1ccc(/C=C/[N+](=O)[O-])cc1 [FootLocker 10, (E)-1-methyl-4-(2-nitrovinyl) benzene]	efficiently disrupt protein-protein interactions at focal adhesion site		compounds showing the most prominent effect on protein-protein interactions at focal adhesion site [2]: most prominent effect
O=[N+]([O-])/C=C/c1cccc(Br)c1 [FootLocker 11, (E)-1-bromo-3-(2-nitrovinyl)benzene]	efficiently disrupt protein-protein interactions at focal adhesion site		
O=[N+]([O-])/C=C/c1cccc(Cl)c1 [FootLocker 12, (E)-1-chloro-3-(2-nitrovinyl)benzene]	efficiently disrupt protein-protein interactions at focal adhesion site		
O=[N+]([O-])/C=C/c1cccc([N+](=O)[O-])c1 [FootLocker 13, (E)-1-nitro-3-(2-nitrovinyl)benzene]	efficiently disrupt protein-protein interactions at focal adhesion site		compounds showing the most prominent effect on protein-protein interactions at focal adhesion site [2]: most prominent effect
C/C(=C\c1ccccc1)[N+](=O)[O-] [FootLocker 15, (E)-(2-nitroprop-1-en 1-yl)benzene]	efficiently disrupt protein-protein interactions at focal adhesion site		
C/C(=C\c1ccc(Br)cc1)[N+](=O)[O-] [FootLocker 16, 1-bromo-4-[(1E)-2-nitro-1-propenyl]benzene]	efficiently disrupt protein-protein interactions at focal adhesion site		compounds showing the most prominent effect on protein-protein interactions at focal adhesion site [2]: most prominent effect
O=[N+]([O-])C=Cc1ccco1 [FootLocker 17, 2-(2-Nitrovinyl)-furan]	efficiently disrupt protein-protein interactions at focal adhesion site		compounds showing the most prominent effect on protein-protein interactions at focal adhesion site [2]: most prominent effect
O=[N+]([O-])C=Cc1cccnc1 [FootLocker 18, 3-(2-nitro-vinyl)-pyridine]	efficiently disrupt protein-protein interactions at focal adhesion site		
O=[N+]([O-])/C=C/c1cc(Br)cs1 [compound 1]		++ (++ indicates displacing effect at 5 µM)	
Nc1ccc(SC(C[N+](=O)[O-])c2ccc(Cl)cc2)cc1 (stereo not shown) [compound 2]		++ (++ indicates displacing effect at 5 µM)	
O=[N+]([O-])/C=C/c1cccc(O)c1 [compound 3]		++ (++ indicates displacing effect at 5 µM)	
COc1cccc(/C=C/[N+](=O)[O-])c1 [compound 4]		++ (++ indicates displacing effect at 5 µM)	

Compound	disruption of protein-protein interactions at focal adhesion site [2]	Activtiy (activity towards FAK/Paxillin displacement) [2]	other results
CCOC(=O)CCCCCOc1ccc(/C=C/[N+](=O)[O-])cc1 [compound 5]		+ (+ at 20 µM)	
[N-]=[N+]=NCCOCCOCCOCCNC(=O)CCCCCCOc1cccc(C=O)c1 [compound 6]		-	
[N-]=[N+]=NCCOCCOCCOCCNC(=O)CCCCCCOc1cccc(/C=C/[N+](=O)[O-])c1 [compound 7]		+ (+ at 20 µM)	
O=[N+]([O-])/C=C/c1ccccc1O [compound 8]		+ (+ at 20 µM)	
O=[N+]([O-])/C=C/c1ccccc1F [compound 9]		++ (++ indicates displacing effect at 5 µM)	
Cc1ccc(/C=C/[N+](=O)[O-])cc1 [compound 10]		++ (++ indicates displacing effect at 5 µM)	
O=[N+]([O-])/C=C/c1cccc(Br)c1 [compound 11]		+ (+ at 20 µM)	
O=[N+]([O-])/C=C/c1cccc(Cl)c1 [compound 12]		+ (+ at 20 µM)	
O=[N+]([O-])/C=C/c1ccc(F)cc1 [compound 14]		++ (++ indicates displacing effect at 5 µM)	
C/C(=C\c1ccc(Br)cc1)[N+](=O)[O-] [compound 16]		++ (++ indicates displacing effect at 5 µM)	
O=[N+]([O-])/C=C/c1ccco1 [compound 17]		++ (++ indicates displacing effect at 5 µM)	
O=[N+]([O-])/C=C/c1cccnc1 [compound 18]		+ (+ at 20 µM)	
O=[N+]([O-])/C=C/c1c[nH]c2ccccc12 [compound 19]		-	
O=[N+]([O-])/C=C/c1cn(-c2ccccc2)c2ccccc12 [compound 20]		-	
O=C/C=C/c1ccc(Cl)cc1 [compound 22]		-	
O=C(O)/C=C/c1cc(Br)cs1 [compound 24]		-	
(E)-ethyl 6-(4-(2-nitrovinyl)phenoxy)hexanoate [FootLocker 5]	efficiently disrupt protein-protein interactions at focal adhesion site		
